The target in assay [1] is Cholinesterase (Homo sapiens, UniProt P06276).
The target of assay [2] is T1, Acetylcholinesterase (Rattus norvegicus, UniProt P37136).
T1 sequence (P37136 whole entry): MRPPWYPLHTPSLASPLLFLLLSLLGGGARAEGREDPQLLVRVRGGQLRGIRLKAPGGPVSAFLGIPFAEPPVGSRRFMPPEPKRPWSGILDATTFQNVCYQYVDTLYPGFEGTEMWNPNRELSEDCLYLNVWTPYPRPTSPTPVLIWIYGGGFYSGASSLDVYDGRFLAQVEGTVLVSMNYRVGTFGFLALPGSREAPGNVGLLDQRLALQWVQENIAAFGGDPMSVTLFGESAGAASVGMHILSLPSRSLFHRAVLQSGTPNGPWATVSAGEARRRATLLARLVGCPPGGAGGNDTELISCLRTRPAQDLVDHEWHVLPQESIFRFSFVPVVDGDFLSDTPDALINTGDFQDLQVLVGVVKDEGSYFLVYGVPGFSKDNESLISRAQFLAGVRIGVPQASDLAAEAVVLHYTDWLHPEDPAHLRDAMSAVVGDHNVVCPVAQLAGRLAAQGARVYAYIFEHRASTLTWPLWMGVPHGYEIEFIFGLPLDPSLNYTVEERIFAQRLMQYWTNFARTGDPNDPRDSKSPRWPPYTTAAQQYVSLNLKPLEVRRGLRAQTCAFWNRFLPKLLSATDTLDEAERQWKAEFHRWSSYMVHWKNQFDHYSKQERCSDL
Nature of the assay: biochemical.

The values that follow come from ChEMBL document CHEMBL1135422 (J Med Chem, 2002).

Sequence of Cholinesterase (P06276 whole entry): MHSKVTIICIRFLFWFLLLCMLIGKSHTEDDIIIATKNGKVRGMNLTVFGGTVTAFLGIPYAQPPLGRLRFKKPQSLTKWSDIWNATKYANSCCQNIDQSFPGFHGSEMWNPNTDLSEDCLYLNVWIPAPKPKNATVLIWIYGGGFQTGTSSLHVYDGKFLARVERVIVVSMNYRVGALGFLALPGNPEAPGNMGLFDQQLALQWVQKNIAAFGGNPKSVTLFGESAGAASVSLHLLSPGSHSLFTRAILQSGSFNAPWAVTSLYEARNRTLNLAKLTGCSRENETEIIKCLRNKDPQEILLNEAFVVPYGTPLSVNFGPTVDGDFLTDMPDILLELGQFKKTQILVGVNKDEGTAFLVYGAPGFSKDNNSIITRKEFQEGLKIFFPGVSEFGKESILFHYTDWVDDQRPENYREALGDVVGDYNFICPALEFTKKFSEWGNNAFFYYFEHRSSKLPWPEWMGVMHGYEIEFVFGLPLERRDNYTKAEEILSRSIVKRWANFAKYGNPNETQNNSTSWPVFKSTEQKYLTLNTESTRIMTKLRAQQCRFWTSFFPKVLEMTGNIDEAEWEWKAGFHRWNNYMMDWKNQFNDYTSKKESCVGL

With `Fc1ccc2c(NCCCCCCCNc3c4c(nc5cc(F)ccc35)CCCC4)c3c(nc2c1)CCCC3`, the IC50 (in general, the concentration at which inhibition is half-maximal) was found to be 257 nM in assay [1] and 0.6 nM in assay [2]. In the case of `c1ccc2c(NCCCCCCNc3c4c(nc5ccccc35)CCC4)c3c(nc2c1)CCC3`, half-maximal inhibition in assay [1] (IC50) was put at 273 nM.

In assay [1], `c1ccc2c(NCCCCCCCNc3c4c(nc5ccccc35)CCCC4)c3c(nc2c1)CCCC3` yielded an IC50 of 54 nM. In the case of `c1cnc2nc3c(c(NCCCCCCCNc4c5c(nc6ncccc46)CCCC5)c2c1)CCCC3`, the IC50 was 59 nM in assay [1] and 1.3 nM in assay [2]. In turn, `c1cnc2nc3c(c(NCCCCCCNc4c5c(nc6ncccc46)CCCC5)c2c1)CCCC3` registered an IC50 in assay [1] of 93 nM. With `Fc1ccc2c(NCCCCCCNc3c4c(nc5cc(F)ccc35)CCCC4)c3c(nc2c1)CCCC3`, the results for the IC50 in assay [1] and in assay [2] were 45 nM and 0.9 nM, respectively. `c1ccc2c(NCCCCCCNc3c4c(nc5ccccc35)CCCCC4)c3c(nc2c1)CCCCC3`: the IC50 came out at 3.3 nM in assay [1] and 2.5 nM in assay [2]. As for `c1ccc2c(NCCCCCCCCNc3c4c(nc5ccccc35)CCC4)c3c(nc2c1)CCC3`, the IC50 in assay [1] was 165 nM. For `c1ccc2c(NCCCCCCCCNc3c4c(nc5ccccc35)CCCCC4)c3c(nc2c1)CCCCC3`, the midpoint of inhibition in assay [1], the IC50, lay at 3.8 nM. For `c1ccc2c(NCCCCCCCCNc3c4c(nc5ccccc35)CCCC4)c3c(nc2c1)CCCC3`, the IC50 in assay [1] was determined as 53 nM; in assay [2], 1.6 nM. The like results for `c1ccc2c(NCCCCCCNc3c4c(nc5ccccc35)CCCC4)c3c(nc2c1)CCCC3` were, in that order, 83 nM and 1.4 nM. With `Clc1ccc2c(NCCCCCCNc3c4c(nc5cc(Cl)ccc35)CCCC4)c3c(nc2c1)CCCC3`, the IC50 in assay [1] worked out at 312 nM; in assay [2], 0.6 nM. Regarding `c1ccc2c(NCCCCCCCNc3c4c(nc5ccccc35)CCCCC4)c3c(nc2c1)CCCCC3`, in assay [1], half-maximal inhibition (IC50) required 2.6 nM.

Regarding `c1ccc2c(NCCCCCCCNc3c4c(nc5ccccc35)CCC4)c3c(nc2c1)CCC3`, the results for the IC50 in assay [1] and in assay [2] were 328 nM and 75 nM, respectively. Taken in the same sequence, the figures for `Fc1ccc2c(NCCCCCCCCNc3c4c(nc5cc(F)ccc35)CCCC4)c3c(nc2c1)CCCC3` were 164 nM and 0.7 nM. As for `Clc1ccc2c(NCCCCCCCNc3c4c(nc5cc(Cl)ccc35)CCCC4)c3c(nc2c1)CCCC3`, the results for the IC50 in assay [1] and in assay [2] were 26 nM and 0.07 nM, respectively.

For the compound `c1cnc2nc3c(c(NCCCCCCCCNc4c5c(nc6ncccc46)CCCC5)c2c1)CCCC3`, the IC50 in assay [1] is 23 nM.
